Test results reported in the Kinase Knowledgebase extract (Sharma et al. 2016).

Assays:
EGFR (human) [1] = molecular target: EGFR (human) (UniProt P00533); conditions: huvec
EGFR (human) [2] = molecular target: EGFR (human) (UniProt P00533); assay: Assessment of DiFi Cell Growth Inhibition by MTS Assay
EGFR = EGFR (UniProt P00533)
Sequence of EGFR (P00533 whole entry, looked up): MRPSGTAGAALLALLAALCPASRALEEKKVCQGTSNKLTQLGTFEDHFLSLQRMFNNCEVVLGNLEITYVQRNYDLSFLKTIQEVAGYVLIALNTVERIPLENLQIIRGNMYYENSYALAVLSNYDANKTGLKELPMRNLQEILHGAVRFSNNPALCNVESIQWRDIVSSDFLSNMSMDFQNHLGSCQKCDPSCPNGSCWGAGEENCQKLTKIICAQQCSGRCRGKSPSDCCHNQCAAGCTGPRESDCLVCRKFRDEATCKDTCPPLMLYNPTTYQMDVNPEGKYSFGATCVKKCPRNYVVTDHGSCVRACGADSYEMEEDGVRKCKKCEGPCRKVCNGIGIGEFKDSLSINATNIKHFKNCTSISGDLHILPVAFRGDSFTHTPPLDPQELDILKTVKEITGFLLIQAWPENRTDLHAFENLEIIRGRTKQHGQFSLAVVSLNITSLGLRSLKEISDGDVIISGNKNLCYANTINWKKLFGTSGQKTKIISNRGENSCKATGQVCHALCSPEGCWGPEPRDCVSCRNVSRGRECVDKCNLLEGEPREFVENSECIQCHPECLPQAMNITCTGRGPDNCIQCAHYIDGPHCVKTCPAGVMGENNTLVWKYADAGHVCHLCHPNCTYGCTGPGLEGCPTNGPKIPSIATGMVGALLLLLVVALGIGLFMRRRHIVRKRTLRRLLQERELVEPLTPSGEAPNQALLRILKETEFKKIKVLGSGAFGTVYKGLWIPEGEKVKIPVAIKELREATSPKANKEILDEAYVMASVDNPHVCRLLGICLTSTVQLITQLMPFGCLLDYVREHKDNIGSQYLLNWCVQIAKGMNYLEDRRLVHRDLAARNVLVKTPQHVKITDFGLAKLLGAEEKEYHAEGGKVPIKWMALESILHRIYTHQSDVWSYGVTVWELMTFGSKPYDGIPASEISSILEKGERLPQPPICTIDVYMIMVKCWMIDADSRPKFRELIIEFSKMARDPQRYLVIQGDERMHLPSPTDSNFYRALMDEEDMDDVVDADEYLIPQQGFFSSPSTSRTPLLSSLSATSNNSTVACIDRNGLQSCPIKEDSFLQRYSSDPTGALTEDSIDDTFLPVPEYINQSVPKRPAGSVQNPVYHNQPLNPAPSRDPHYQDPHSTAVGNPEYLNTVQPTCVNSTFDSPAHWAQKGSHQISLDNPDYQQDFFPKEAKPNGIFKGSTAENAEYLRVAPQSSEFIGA

Sequence of EGFR (human) (P00533 whole entry, looked up): as above

| SMILES | IC50 (EGFR (human) [1]) | IC50 (EGFR (human) [2]) | IC50 (EGFR) |
| --- | --- | --- | --- |
| Cc1ccc(Nc2ncnn3c(C)ccc23)cc1O | 101 nM | > 10000 nM | – |
| Cc1cc2c(Nc3ccc(F)c(Cl)c3)ncnn2c1 | 509 nM | 1600 nM | – |
| Cc1ccc(Nc2ncnn3cc(C)c(C)c23)cc1O | – | > 10000 nM | – |
| Cc1ccc(Nc2ncnn3cccc23)cc1O | – | > 10000 nM | – |
| Cc1cc2c(Nc3ccc(C)c(O)c3)ncnn2c1 | – | > 10000 nM | – |
| Fc1ccc(Nc2ncnn3cccc23)cc1Cl | 345 nM | 1840 nM | 118 nM |
| Cc1ccc(Nc2ncnn3ccc(C)c23)cc1O | 270 nM | > 10000 nM | – |
| Cc1ccc2c(Nc3ccc(F)c(Cl)c3)ncnn12 | > 2500 nM | > 10000 nM | – |
| Cc1ccn2ncnc(Nc3ccc(F)c(Cl)c3)c12 | 602 nM | 3060 nM | – |
